Test results as given in patent US6995283B2, “Benzophenones as inhibitors of reverse transcriptase” (priority 2001, dated 2006).

Tested on: HIV-1 (strain IIIIB)
Assay: MT4 cell assay (propidium iodide readout)
Format: cell-based
Conditions: Human immunodeficiency virus 1, control and standard, MT4 cells, read-out: expected range of IC50 values
Experimental: Antiviral HIV activity and compound-induced cytotoxicity were measured in parallel by means of a propidium iodide based procedure in the human T-cell lymphotropic virus transformed cell line MT4. Aliquots of the test compounds were serially diluted in medium (RPMI 1640, 10% fetal calf serum (FCS), and gentamycin) in 96-well plates (Costar 3598) using a Cetus Pro/Pette. Exponentially growing MT4 cells were harvested and centrifuged at 1000 rpm for 10 min in a Jouan centrifuge (model CR 4 12). Cell pellets were resuspended in fresh medium (RPMI 1640, 20% FCS, 20% IL-2, and gentamycin) to a density of 5×10^5 cells/ml. […] The plates were analyzed in an automated assay instrument (Screen Machine, Idexx Laboratories). […] The assay makes use of a propidium iodide dye to estimate the DNA content of each well. • B. For MTS readout, 20 μl CellTiter 96 AQ One Solution reagent (Promega #G3582) was added to each well. At 75 minutes following the addition of MTS reagent, absobance was read at 492 nm using a Tecan Sunrise 96-well plate reader. […]
For each assay plate, the results (relative fluorescence units, rfU, or OD values) of wells containing uninfected cells or infected cells with no compound were averaged, respectively. […] Percent of cells remaining is determined by the following formula: Percent of cells remaining=(compound-treated uninfected cells, rfU, or OD values/untreated uninfected cells)×100. […]

IC50: 40 to 120 nM
SMILES: Cc1cn([C@H]2C[C@H](N=[N+]=[N-])[C@@H](CO)O2)c(=O)[nH]c1=O [3′-azido-3′-deoxythymidine]
